These results are taken from US20200031778A1, “NOVEL 5-SUBSTITUTED IMIDAZOLYLMETHYL DERIVATIVES” (Bayer CropScience Aktiengesellschaft, priority 2016, published 2020).

Data set [1] deals with Septoria tritici. Put plainly: Example IX-B: in vivo preventive test on Septoria tritici (leaf spot on wheat). The conditions noted are these: Zymoseptoria tritici, 576 h; compounds of formula IX; 500 ppm of active ingredient; wheat plants, preventive spray; evaluated 24 days after inoculation; read-out: efficacy. As for the experimental part: Example IX-B: In Vivo Preventive Test on Septoria Tritici (Leaf Spot on Wheat)
(§1) The active ingredients are made soluble and homogenized in a mixture of Dimethyl sulfoxide/Acetone/Tween® 80 and then diluted in water to the desired concentration.
(§2) The young plants of wheat are treated by spraying the active ingredient prepared as described above. Control plants are treated only with an aqueous solution of Acetone/Dimethyl sulfoxide/Tween® 80.
After 24 hours, the plants are contaminated by spraying the leaves with an aqueous suspension of Septoria tritici spores. The contaminated wheat plants are incubated for 72 hours at 18° C. and at 100% relative humidity and then for 21 days at 20° C. and at 90% relative humidity.
The test is evaluated 24 days after the inoculation. 0% means an efficacy which corresponds to that of the control plants while an efficacy of 100% means that no disease is observed.

In data set [2] the test system is Puccinia recondita. Put plainly: Example IX-A: in vivo preventive test on Puccinia recondita (brown rust on wheat). The settings on record: 264 h, compounds of formula IX, 500 ppm of active ingredient, wheat plants, preventive spray, evaluated 11 days after inoculation, read-out: efficacy. As for the experimental part:
Example IX-A: In Vivo Preventive Test on Puccinia Recondita (Brown Rust on Wheat)
as §1, §2
After 24 hours, the plants are contaminated by spraying the leaves with an aqueous suspension of Puccinia recondita spores. The contaminated wheat plants are incubated for 24 hours at 20° C. and at 100% relative humidity and then for 10 days at 20° C. and at 70-80% relative humidity.
(§3) The test is evaluated 11 days after the inoculation. 0% means an efficacy which corresponds to that of the control plants while an efficacy of 100% means that no disease is observed.

Data set [3] is described as follows: Log P by HPLC on reversed phase columns (EEC directive 79/831 Annex V.A8; methods [a], [b], [c]). In kind it is physicochemical. The conditions noted are these: reversed phase HPLC column; method [a]: LC-UV, acidic range, 0.1% formic acid in water and acetonitrile as eluent (linear gradient from 10% to 95% acetonitrile). In outline: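 Reversed-phase HPLC with LC-UV detection, 10→95% acetonitrile linear gradient; aqueous eluent 0.1% formic acid [a], 0.001 M ammonium acetate, neutral [b], or 0.1% phosphoric acid [c]. Calibrated against C3–C16 alkan-2-ones of known Log P by retention-time linear interpolation; multiple values within a method separated by "+".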

Data set [4] concerns Uromyces appendiculatus. Put plainly: Example IX-D: in vivo preventive test on Uromyces appendiculatus (bean rust). The conditions noted are these: 264 h, compounds of formula IX, 500 ppm of active ingredient, bean plants, preventive spray, evaluated 11 days after inoculation, read-out: efficacy. As for the experimental part:
Example IX-D: In Vivo Preventive Test on Uromyces Appendiculatus (Bean Rust)
as §1
The young plants of bean are treated by spraying the active ingredient prepared as described above. Control plants are treated only with an aqueous solution of Acetone/Dimethyl sulfoxide/Tween® 80.
After 24 hours, the plants are contaminated by spraying the leaves with an aqueous suspension of Uromyces appendiculatus spores. The contaminated bean plants are incubated for 24 hours at 20° C. and at 100% relative humidity and then for 10 days at 20° C. and at 70-80% relative humidity.
as §3
control plants while an efficacy of 100% means that no disease was observed.

In data set [5] the test system is Sphaerotheca fuliginea. Put plainly: Example IX-C: in vivo preventive test on Sphaerotheca fuliginea (powdery mildew on cucurbits). The settings on record: Podosphaera fuliginea, 360 h; compounds of formula IX; 500 ppm of active ingredient; gherkin plants, preventive spray; evaluated 15 days after inoculation; read-out: efficacy. As for the experimental part:
Example IX-C: In Vivo Preventive Test on Sphaerotheca Fuliginea (Powdery Mildew on Cucurbits)
as §1
The young plants of gherkin are treated by spraying the active ingredient prepared as described above. Control plants are treated only with an aqueous solution of Acetone/Dimethyl sulfoxide/Tween® 80.
After 24 hours, the plants are contaminated by spraying the leaves with an aqueous suspension of Sphaerotheca fuliginea spores. The contaminated gherkin plants are incubated for 72 hours at 18° C. and at 100% relative humidity and then for 12 days at 20° C. and at 70-80% relative humidity.
The test is evaluated 15 days after the inoculation. 0% means an efficacy which corresponds to that of the control plants while an efficacy of 100% means that no disease is observed.

Structures are written as SMILES.

For orientation: chromatographic logP means a lipophilicity value derived from retention on a column. Low values mean a more hydrophilic compound, high ones a more lipophilic compound. For `N#Cc1cncn1CC(=O)c1cnc(Oc2ccc(Br)cc2)cc1C(F)F` [IX-123], the pest or weed control at 500 ppm in data set [1], in data set [2] and in data set [4] was 90 to 100% in each case. The same molecule showed a chromatographic logP in data set [3] of 2.89.

Regarding `O=C(Cn1cncc1Br)c1ccc(Oc2ccc(C(F)(F)F)cc2)cc1C(F)(F)F` [IX-51], the pest or weed control at 500 ppm in data set [1] lay within 90 to 100%; in data set [2], 80 to 89%; in data set [5], 90 to 100%. In addition, the chromatographic logP in data set [3] came to 3.51.

In the case of `O=C(Cn1cncc1Br)c1ccc(Oc2ccc(S(F)(F)(F)(F)F)cc2)nc1Cl` [IX-26], the figures for the pest or weed control at 500 ppm in data set [1], in data set [2] and in data set [5] were 80 to 89%, 80 to 89% and 90 to 100%, respectively. In data set [3], this molecule registered a chromatographic logP of 3.23.

Regarding `O=C(Cn1cncc1Br)c1ccc(Oc2ccc(Br)cc2)cc1C(F)(F)F` [IX-40], the pest or weed control at 500 ppm in data set [1] lay in the range of 90 to 100%; in data set [2], 80 to 89%; in data set [4], 90 to 100%. In data set [3], this molecule registered a chromatographic logP of 3.46.

Take `N#Cc1cncn1CC(=O)c1ccc(Oc2ccc(Cl)cn2)cc1Cl` [IX-70]: the pest or weed control at 500 ppm in data set [1] is 70 to 79%; in data set [2] it was 80 to 89%; in data set [5], 90 to 100%. The molecule further registered a chromatographic logP in data set [3] of 2.8.

Regarding `O=C(Cn1cncc1Cl)c1ccc(Oc2ccc(Cl)nc2)cc1Cl` [IX-44], the pest or weed control at 500 ppm in data set [1] fell in the range of 90 to 100%; in data set [2] it was 80 to 89%; in data set [5], 90 to 100%. This molecule returned a chromatographic logP in data set [3] of 2.2.

Turning to `N#Cc1cncn1CC(=O)c1ccc(Cl)cc1Cl` [IX-99], the pest or weed control at 500 ppm lay in the range of 90 to 100% in data set [1], 70 to 79% in data set [2] and 90 to 100% in data set [5]. The same molecule returned a chromatographic logP in data set [3] of 2.34.

With `O=C(Cn1cncc1F)c1cnc(Oc2ccc(C(F)F)cc2)cc1C(F)(F)F` [IX-97], the pest or weed control at 500 ppm lay in the range of 90 to 100% in data set [1], 80 to 89% in data set [2] and 90 to 100% in data set [4]. Further, the chromatographic logP in data set [3] amounted to 2.53.

Turning to `N#Cc1cncn1CC(=O)c1ccc(Oc2ccc(Br)nc2)nc1C(F)(F)F` [IX-144], the figures for the pest or weed control at 500 ppm in data set [1], in data set [2] and in data set [5] were 90 to 100%, 70 to 79% and 90 to 100%, respectively. The chromatographic logP in data set [3] amounted to 2.68.

For `N#Cc1cncn1CC(=O)c1ccc(Oc2ccc(Cl)cn2)cc1C(F)(F)F` [IX-71], the pest or weed control at 500 ppm in data set [1], in data set [2] and in data set [5] was 90 to 100% each time. Moreover, the chromatographic logP in data set [3] came to 3.01.

As to `O=C(Cn1cncc1Cl)c1ccc(Oc2ccc(Cl)nc2)cc1C(F)(F)F` [IX-28], the pest or weed control at 500 ppm is 90 to 100% in data set [1], 80 to 89% in data set [2] and 90 to 100% in data set [5]. This molecule also displayed a chromatographic logP in data set [3] of 2.45.

`N#Cc1cncn1CC(=O)c1ccc(Oc2ccc(C(F)(F)F)cc2)nc1C(F)(F)F` [IX-137]: the pest or weed control at 500 ppm in data set [1], in data set [2] and in data set [5] was 90 to 100% throughout. Further, in data set [3], the chromatographic logP came to 3.35.

Take `N#Cc1cncn1CC(=O)c1cnc(Oc2ccc(C(F)F)cc2)cc1C(F)(F)F` [IX-98]: the values for the pest or weed control at 500 ppm in data set [1], in data set [2] and in data set [4] were 90 to 100%, 80 to 89% and 90 to 100%, respectively. Also, the chromatographic logP in data set [3] amounted to 3.13.

Regarding `N#Cc1cncn1CC(=O)c1ccc(Oc2ccc(C(F)F)cc2)nc1C(F)(F)F` [IX-132], the pest or weed control at 500 ppm in data set [1], in data set [2] and in data set [5] was 90 to 100% in each case. The same molecule returned a chromatographic logP in data set [3] of 2.8.

In the case of `O=C(Cn1cncc1Cl)c1ccc(Oc2ccc(C(F)(F)F)cc2)cc1C(F)(F)F` [IX-53], the pest or weed control at 500 ppm in data set [1], in data set [2] and in data set [4] was 90 to 100% each time. For the same molecule, the chromatographic logP in data set [3] was determined as 3.51.

As for `O=C(Cn1cncc1Cl)c1ccc(Oc2ccc(Cl)cc2)cc1` [IX-21], the pest or weed control at 500 ppm was in the range of 90 to 100% in data set [1], 80 to 89% in data set [2] and 90 to 100% in data set [5]. The molecule also gave a chromatographic logP in data set [3] of 2.63.

`O=C(Cn1cncc1Br)c1ccc(Oc2ccc(Cl)cc2)cc1` [IX-22]: the figures for the pest or weed control at 500 ppm in data set [1], in data set [2] and in data set [5] were 90 to 100%, 80 to 89% and 90 to 100%, respectively. This molecule also had a chromatographic logP in data set [3] of 2.63.

Take `O=C(Cn1cncc1Br)c1ccc(Oc2ccc(Cl)cn2)cc1Cl` [IX-55]: the pest or weed control at 500 ppm in data set [1] was in the range of 90 to 100%; in data set [2], 80 to 89%; in data set [5], 90 to 100%. Also, the chromatographic logP in data set [3] was 2.52.

On to `N#Cc1cncn1CC(=O)c1ccc(Oc2ccc(OC(F)(F)F)cc2)nc1C(F)(F)F` [IX-129], for which the pest or weed control at 500 ppm in data set [1], in data set [2] and in data set [5] was 90 to 100% each time. The same molecule gave a chromatographic logP in data set [3] of 3.32.

Take `N#Cc1cncn1CC(=O)c1ccc(Oc2ccc(Br)cc2)nc1C(F)(F)F` [IX-118]: the figures for the pest or weed control at 500 ppm in data set [1], in data set [5] and in data set [4] were 90 to 100%, 90 to 100% and 80 to 89%, respectively. Besides, the chromatographic logP in data set [3] was 3.39.

Take `N#Cc1cncn1CC(=O)c1ccc(Oc2ccc(Cl)cc2F)nc1C(F)(F)F` [IX-128]: the pest or weed control at 500 ppm in data set [1] was in the range of 90 to 100%; in data set [2] it was 70 to 79%; in data set [5], 90 to 100%. This molecule also displayed a chromatographic logP in data set [3] of 3.14.

For `O=C(Cn1cncc1Cl)c1ccc(Oc2ccc(C(F)(F)F)cc2)cc1` [IX-17], the pest or weed control at 500 ppm in data set [1] fell in the range of 90 to 100%; in data set [2], 80 to 89%; in data set [5] it was 90 to 100%. In data set [3], this molecule had a chromatographic logP of 2.84.

Take `N#Cc1cncn1CC(=O)c1ccc(Cl)cc1` [IX-90]: the values for the pest or weed control at 500 ppm in data set [1], in data set [2] and in data set [5] were 90 to 100%, 80 to 89% and 80 to 89%, respectively. Also, the chromatographic logP in data set [3] came out at 2.04.

For the molecule `O=C(Cn1cncc1Cl)c1ccc(Oc2ccc(Cl)cn2)cc1C(F)(F)F` [IX-72], the results for the pest or weed control at 500 ppm in data set [1], in data set [2] and in data set [5] were 90 to 100%, 80 to 89% and 70 to 79%, respectively. Moreover, the chromatographic logP in data set [3] is 2.75.

For `N#Cc1cncn1CC(=O)c1cnc(Oc2ccc(Br)nc2)cc1C(F)(F)F` [IX-143], the pest or weed control at 500 ppm was in the range of 90 to 100% in data set [1], 80 to 89% in data set [2] and 90 to 100% in data set [5]. The same molecule registered a chromatographic logP in data set [3] of 2.71.

With `N#Cc1cncn1CC(=O)c1ccc(Oc2ccc(C(F)(F)F)nc2)nc1C(F)(F)F` [IX-131], the pest or weed control at 500 ppm was 90 to 100% in data set [1], 80 to 89% in data set [2] and 90 to 100% in data set [5]. Also, in data set [3], the chromatographic logP turned out to be 2.92.

`O=C(Cn1cncc1Cl)c1ccc(Oc2ccc(Cl)cc2)nc1C(F)(F)F` [IX-52]: the pest or weed control at 500 ppm in data set [1] was 90 to 100%; in data set [2], 90 to 100%; in data set [5] it was 70 to 79%. Besides, the chromatographic logP in data set [3] was determined as 3.
